Results from US20110009433A1, “BICYCLIC PYRROLE COMPOUND” (DAINIPPON SUMITOMO PHARMA CO., LTD., priority 2008, published 2011).
Structures can show the parent of a compound that is named as a salt.

What was measured:
[1] = Hygroscopicity measured at room temperature (weight change under moisture adsorption/desorption); type: physicochemical; settings: humidity of 0 to 90%
Method: (§1) The hygroscopicity was measured at room temperature for each of the crystalline monohydrochloride 0.5 hydrate of Example 1 (compound A) produced by the method of the present invention and the amorphous powders of the compound of Example 6 of International Publication No. 2006/068163 (compound B) produced by a conventional technique.

[2] = Storage stability under a light source: residual rate by HPLC and appearance after two week storage; type: physicochemical; settings: for residual rate: HPLC area percentage; for change in color after the stability test (in words) / stability under a light source (in words): both 1000 lux and 4000 lux
Method: as §1, with “residual rates after two week storage under a light source of 1000 lux and 4000 lux were” for “hygroscopicity was”, “measured” for “measured at room temperature”
The residual rate (%) of a compound was determined by the area percentage of the residual rate of the compound measured using high performance liquid chromatography (HPLC). The HPLC measurement conditions were as follows:
Column: CAPCELL PAK C18 UG120 (4.6 mm I.D.×250 mm)
Mobile phase (A/B): 10 mM sodium phosphate buffer (pH=6.9)/CH3CN
Mobile phase (ratio of B): 30% (0 min) →90% (45 min)
Column temperature: 40° C.

human recombinant DPP IV = target: T1, human recombinant DPP IV (Homo sapiens, UniProt P27487); test: In vitro DPP-IV inhibitory action measurement test; type: biochemical; settings: preincubated 100 to 110 minutes, substrate Gly-Pro-MCA 40 μmol/L
T1 construct: purchased R&D system
Method: Solutions containing test compounds were prepared at various concentrations and added to microassay plates. Further, human recombinant DPP IV (R&D system) was added and preincubated at room temperature for 100 to 110 minutes, followed by adding a substrate (Glycyl-L-proline 4-methylcoumaryl-7-amide, Peptide Institute, Inc.; final concentration: 40 μmol/L) to start the enzymatic reaction. The enzymatic reaction rate was determined by measuring the fluorescence change with time for 10 minutes after 10 minutes elapsed from the start of addition of the substrate using a fluorescence plate reader (excitation wavelength: 380 nm, measurement wavelength: 460 nm). From the results obtained, the compound concentration showing 50% inhibition was calculated as an IC50 value.

[3] = two week storage, 1000 Lux, 11% RH
[4] = two week storage, 4000 Lux, 10% RH

T1 sequence (P27487 whole entry): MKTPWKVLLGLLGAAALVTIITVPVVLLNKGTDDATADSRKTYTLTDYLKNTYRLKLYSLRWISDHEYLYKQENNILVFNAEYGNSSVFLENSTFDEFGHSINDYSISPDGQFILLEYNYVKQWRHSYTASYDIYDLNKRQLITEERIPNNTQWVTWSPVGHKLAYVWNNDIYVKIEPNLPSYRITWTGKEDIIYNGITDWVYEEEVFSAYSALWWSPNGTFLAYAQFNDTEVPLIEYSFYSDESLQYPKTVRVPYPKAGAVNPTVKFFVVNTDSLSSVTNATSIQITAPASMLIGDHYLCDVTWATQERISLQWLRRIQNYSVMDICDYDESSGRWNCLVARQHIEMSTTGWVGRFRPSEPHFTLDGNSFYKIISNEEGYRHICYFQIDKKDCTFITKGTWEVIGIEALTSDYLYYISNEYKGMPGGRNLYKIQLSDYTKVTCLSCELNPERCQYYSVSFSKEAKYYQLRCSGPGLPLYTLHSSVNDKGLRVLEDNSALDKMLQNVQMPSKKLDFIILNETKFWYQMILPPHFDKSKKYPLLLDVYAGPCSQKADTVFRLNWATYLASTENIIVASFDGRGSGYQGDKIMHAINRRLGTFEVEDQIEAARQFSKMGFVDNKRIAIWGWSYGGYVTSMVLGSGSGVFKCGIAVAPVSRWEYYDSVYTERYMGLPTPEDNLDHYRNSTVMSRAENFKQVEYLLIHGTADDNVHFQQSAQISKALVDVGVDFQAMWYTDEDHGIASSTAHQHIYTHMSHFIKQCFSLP

change in the weight (hygroscopicity) [1] | appearance (color) ([2]; Initial) | residual rate ([2]; Initial) [%] | change in color after the stability test (in words) ([2]; two week storage) | stability under a light source (in words) ([2]; two week storage) | appearance (color) [2, 3] | residual rate [2, 3] [%] | appearance (color) [2, 4] | residual rate [2, 4] [%] | IC50 (human recombinant DPP IV) [nM] | melting point [°C] | Structure (SMILES)
no change in the weight | Pale yellow | 100.0 | no change in color | extremely high stability | Pale yellow | 100.0 | Pale yellow | 99.9 | 0.71 |  | Cn1c(=O)c2c(cc(N3CCC[C@@H](N)C3)n2Cc2cc(F)ccc2Cl)n(C)c1=O [Compound A, 6-[(3R)-3-aminopiperidin-1-yl]-5-(2-chloro-5-fluorobenzyl)-1,3-dimethyl-1H-pyrrolo[3,2-d]pyrimidine-2,4(3H,5H)-dione monohydrochloride hemihydrate]
 |  |  |  |  |  |  |  |  |  | 205 to 208 | Cn1c(=O)c2c(cc(N3CCC[C@@H](N)C3)n2Cc2cc(F)ccc2Cl)n(C)c1=O (as salt: hydrochloride) (hydrate or solvate) [Compound A, 6-[(3R)-3-aminopiperidin-1-yl]-5-(2-chloro-5-fluorobenzyl)-1,3-dimethyl-1H-pyrrolo[3,2-d]pyrimidine-2,4(3H,5H)-dione monohydrochloride hemihydrate]
−5.0 to 9.0% | Pale yellow | 100.0 | apparently changed in color to yellow | low stability | Yellow | 99.2 | Yellow | 97.4 |  |  | Cl.Cn1c(=O)c2c(cc(N3CCC[C@@H](N)C3)n2Cc2cc(F)ccc2Cl)n(C)c1=O [Compound B, reference compound]
